Assay results from patent US11066693B2, “Methods for diagnosing LHRH or hCG/LH receptor expressing tumors, cancers and neoplasias” (ESPERANCE PHARMACEUTICALS, INC., priority 2009, dated 2021).
Ends that are not written are not given here.

Assays:
[1] = system: MDA-MB-231 human breast cancer cell line; test: In vitro cytotoxicity, MTT cell viability assay; format: cell-based
Protocol: Incubations were conducted for 24 h at 37° C.

[2] = system: SKOV-3 LHRH receptor negative ovarian cancer cell line; settings: read-out: Cytotoxicity evaluated as IC50 value, 24 h at 37° C., MTT
Protocol: (§1) Studies were designed to test receptor specificity, correlation of sensitivity to LHRH receptor expression and initial efficacy kinetics in vitro by comparing targeted kinetics to untargeted kinetics. […] Cytotoxicity was evaluated as IC50 value for each cell line.
(§2) Cell cultures were prepared in 96 well plates using 10,000 cells/well and were allowed to attach for 48 hours. […] Incubations were conducted for 24 h at 37° C. Cell viability was determined using formazan conversion assays (MTT assays). Controls contained USP saline or 0.1% TritonX-100™ as reference for 0 and 100% cell death, respectively.
(§3) Data were processed and analyzed using Graph Pad Prizm 4™ software (Graph Pad Prizm, Inc). Statistical analysis for significance was determined by a two-tailed Student's T-test.

[3] = system: AN3-CA human endometrial cancer cell line; settings: read-out: Cytotoxicity evaluated as IC50 value, 24 h at 37° C., MTT
Protocol: as §1, §2, §3

[4] = system: MDA-MB-4355 breast cancer cell line; settings: read-out: Cytotoxicity evaluated as IC50 value; MDA-MB-4355, highest LHRH receptor capacity, 24 h at 37° C., MTT
Protocol: as §1, §2, §3

[5] = system: PC-3 prostate cancer cell line; settings: read-out: Cytotoxicity evaluated as IC50 value; PC-3, 24 h at 37° C., MTT
Protocol: as §1, §2, §3

[6] = system: OVCAR-3 ovarian cancer cell line; settings: read-out: Cytotoxicity evaluated as IC50 value; OVCAR-3, 24 h at 37° C., MTT
Protocol: as §1, §2, §3

[7] = system: LNCaP prostate cancer cell line; settings: read-out: Cytotoxicity evaluated as IC50 value, 24 h at 37° C., MTT
Protocol: as §1, §2, §3

Row | Compound | Sensitivity of cell line to the drug ([1]; MDA-MB-231, multi drug resistant) | IC50 [2] [µM] | IC50 [3] [µM] | IC50 [4] [µM] | IC50 [5] [µM] | IC50 [6] [µM] | IC50 ([1]; MDA-MB-231 (ER, Her2/neu, PR negative, multi drug resistant), 24 h at 37° C., MTT, read-out: Cytotoxicity evaluated as IC50 value) [µM] | IC50 [7] [µM]
1 | N.N.[Cl][Pt][Cl] [cisplatinum, reference compound] | insensitive |  |  |  |  |  |  | 
2 | KFAKFAKKFAKFAKKFAKQHWSYGLRPG [EP-100] |  | > 10 | 3.3 | 0.8 | 5.5 | 3 | 5.5 | 1.5
